Drawing on ChEMBL document CHEMBL3994634, “Synthesis of new chromeno-carbamodithioate derivatives and preliminary evaluation of their antioxidant activity and molecular docking studies” (Bioorg Med Chem Lett, 2017), this text covers Activity and IC50 for ten molecules.

A short description of assay [1]: Antioxidant activity assessed as […] radical scavenging activity by spectrophotometric method relative to control. It counts as functional. Also noted: concentration or dose not given beside the values.
Assay [2] in a line: Antioxidant activity assessed as inhibition of […] radical by spectrophotometric method. In kind it is functional.

`CCN(CC)C(=S)SCC(O)COc1ccc2c(=O)c(C)c(C)oc2c1` (stereo not given): in assay [1], the Activity came out at 29.5%. The half-inhibitory concentration (IC50) – broadly, the point on the concentration scale where inhibition reaches its midpoint – in assay [2] came out at 1.71 mM.
With `Cc1oc2cc(OCC(O)CSC(=S)N3CCC(Cc4ccccc4)CC3)ccc2c(=O)c1C` (stereo not given), the Activity in assay [1] was 31.8%. In addition, the IC50 in assay [2] turned out to be 1.57 mM.
Turning to `Cc1oc2cc(OCC(O)CSC(=S)N3CCN(C(c4ccccc4)c4ccccc4)CC3)ccc2c(=O)c1C` (stereo not given), the Activity in assay [1] was 30.9%. For the same molecule, the IC50 in assay [2] turned out to be 1.62 mM.
For `COc1ccccc1N1CCN(C(=S)SCC(O)COc2ccc3c(=O)c(C)c(C)oc3c2)CC1` (stereo not given), in that order: 31.6% and 1.59 mM.
Regarding `Cc1oc2cc(OCC(O)CSC(=S)N3CCOCC3)ccc2c(=O)c1C` (stereo not given), in assay [1], the Activity turned out to be 35.6%. Besides, the IC50 in assay [2] is 1.41 mM.
In the same order, the values of `Cc1oc2cc(OCC(O)CSC(=S)N3CCN(c4ccc(F)cc4)CC3)ccc2c(=O)c1C` (stereo not given) are 24.8% and 2.04 mM.
Regarding `Cc1oc2cc(OCC(O)CSC(=S)N3CCN(C)CC3)ccc2c(=O)c1C` (stereo not given), the Activity in assay [1] came out at 29.4%. Moreover, in assay [2], the half-inhibitory concentration (IC50) stood at 1.72 mM.
With `Cc1oc2cc(OCC(O)CSC(=S)N3CCN(Cc4ccc5c(c4)OCO5)CC3)ccc2c(=O)c1C` (stereo not given), the Activity in assay [1] amounted to 36.8%. The IC50 in assay [2] turned out to be 1.38 mM.
For `O=C1O[C@H]([C@@H](O)CO)C(O)=C1O` [ASCORBIC ACID], in that order: 30.4% and 1.64 mM.
In the same order, the values of `Cc1oc2cc(OCC(O)CSC(=S)N3CCN(c4ccccc4)CC3)ccc2c(=O)c1C` (stereo not given) are 24.8% and 2.24 mM.
